Publication PMC4648803 (Purinergic Signalling, 2015)
Several values for one entry are separate records, joined by “and”; a condition that tells them apart may be missing. Equal values may be shown once. Blank lines part the entries; values can stand above or below the compound they belong to.

Legend:
hA1AR [1] = biological target: T1, hA1AR (Homo sapiens, UniProt P30542); conditions: saturation on hA1AR; cited from earlier work
T1 sequence (P30542 1-326): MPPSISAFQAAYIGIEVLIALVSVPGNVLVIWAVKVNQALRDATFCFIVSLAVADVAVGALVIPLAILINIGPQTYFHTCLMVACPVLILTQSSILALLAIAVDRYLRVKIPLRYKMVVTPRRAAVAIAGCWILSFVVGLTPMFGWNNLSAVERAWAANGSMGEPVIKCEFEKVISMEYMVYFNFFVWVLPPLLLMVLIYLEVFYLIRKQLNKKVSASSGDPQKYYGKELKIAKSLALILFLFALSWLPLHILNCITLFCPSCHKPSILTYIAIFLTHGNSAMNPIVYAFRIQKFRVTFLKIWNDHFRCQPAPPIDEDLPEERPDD

hA1AR [2] = biological target: T1, hA1AR; conditions: saturation on CHO-hA1AR membranes, M/IS
Protocol: Dilutions were prepared with a HP D300 Digital Dispenser (Tecan Group, Männerdorf, Swiss) from DMSO stocks.

hA1AR [3] = biological target: T1, hA1AR; assay: MS binding competition association assay (marker ligand DPCPX); design: expressed in transfected cells; host or cells: CHO cells stably expressing hA1AR (membrane preparation); gift from Prof; S. Hill, University of Nottingham; conditions: for shape of competition association curve: 6 nM DPCPX, 250 nM competing ligand
Protocol: . […] Non-specific binding was determined as described under “MS binding displacement assays.”

hA1AR [4] = biological target: T1, hA1AR; design: expressed in transfected cells; host or cells: CHO cells stably expressing hA1AR (membrane preparation); gift from Prof; S. Hill, University of Nottingham; method as in PMID 23093571; conditions: competition association, apparent value; cited from earlier work
hA2AAR [5] = biological target: T2, hA2AAR (Homo sapiens, UniProt P29274); assay: MS binding displacement assay (marker ligand ZM-241,385); conditions: 3 nM ZM-241,385 marker, read-out: K i ± SEM, MS binding
T2 construct: expressed in transfected cells; host or cells: HEK293 cells stably expressing hA2AAR (membrane preparation); gift from Dr. J. Wang, Biogen/IDEC
T2 sequence (P29274 whole entry): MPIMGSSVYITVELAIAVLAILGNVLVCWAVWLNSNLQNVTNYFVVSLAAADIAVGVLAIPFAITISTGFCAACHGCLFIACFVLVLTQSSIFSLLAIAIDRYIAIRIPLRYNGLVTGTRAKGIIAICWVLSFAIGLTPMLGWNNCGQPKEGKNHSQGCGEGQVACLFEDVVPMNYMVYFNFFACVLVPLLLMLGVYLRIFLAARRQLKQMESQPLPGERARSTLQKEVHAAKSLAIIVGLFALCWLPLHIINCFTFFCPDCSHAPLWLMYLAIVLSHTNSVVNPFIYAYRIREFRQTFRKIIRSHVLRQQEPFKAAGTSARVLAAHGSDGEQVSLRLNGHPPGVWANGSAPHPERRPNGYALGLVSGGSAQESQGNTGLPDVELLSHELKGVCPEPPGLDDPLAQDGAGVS
Protocol: (§3) Ligand displacement experiments were performed using nine concentrations of competing ligand.

hA2AAR [6] = biological target: T2, hA2AAR; assay: Radioligand binding displacement assay; conditions: newly acquired, read-out: K i ± SEM, Radioligand binding
Protocol: (§1) The reference radioligand binding data were published before by our lab or were acquired as described before.
(§2) For the validation of MS binding assays, radioligand binding data that was published previously by our group was used. In the case that no in-house radioligand binding data was available, the concerning assays were performed following previously established protocols.

hA2AAR [7] = biological target: T2, hA2AAR; assay: Radioligand binding competition association assay; conditions: newly acquired
Protocol: as §1, §2

hA2AAR [8] = biological target: T2, hA2AAR; assay: MS binding competition association assay (marker ligand ZM-241,385)
hA1AR [9] = biological target: T1, hA1AR; assay: Radioligand binding competition association assay; design: expressed in transfected cells; host or cells: CHO cells stably expressing hA1AR (membrane preparation); gift from Prof; S. Hill, University of Nottingham; conditions: newly acquired
Protocol: as §1, §2

hA1AR [10] = biological target: T1, hA1AR; assay: biochemical; conditions: K i ± SEM, MS binding, 6 nM DPCPX marker, overall (one-state) value
Protocol: as §3

hA1AR [11] = biological target: T1, hA1AR; assay: biochemical; conditions: K i ± SEM, Radioligand binding, overall (one-state) value, newly acquired
Protocol: as §1, §2

[12] = competition association with 3 nM ZM-241,385, with internal standard
[13] = competition association with 3 nM ZM-241,385, without internal standard

B max, MS binding (hA1AR [2]): 17.3 ± 0.3 pmol/mg protein
SMILES: CCCn1c(=O)c2[nH]c(C3CCCC3)nc2n(CCC)c1=O [DPCPX, 1,3-dipropyl-8-cyclopentyl-xanthine]
B max, Radioligand binding (hA1AR [1]): 14 ± 1 pmol/mg protein and 14 ± 1 [29] pmol/mg protein

SMILES: CCCn1c(=O)c2[nH]c(C3CCCC3)nc2n(CCCOC(=O)c2ccc(S(=O)(=O)F)cc2)c1=O [FSCPX]
shape of competition association curve (hA1AR [3]; hA1AR): typical for slowly dissociating ligands | displacement of the marker ligand DPCPX (hA1AR [3]; hA1AR, 250 nM FSCPX, after 120 min): completely | k on ± SEM, MS binding (M/IS) (hA1AR [3]; hA1AR, competition association with 6 nM DPCPX, with internal standard, apparent value for covalently binding FSCPX): 0.7 ± 0.2 × 10^6 M^−1 min^−1 | k on ± SEM, MS binding (marker) (hA1AR [3]; hA1AR, competition association with 6 nM DPCPX, without internal standard, apparent value for FSCPX): 0.7 ± 0.2 × 10^6 M^−1 min^−1 | k on ± SEM, Radioligand binding (hA1AR [4]): 3.7 ± 1.0 × 10^6 [29] M^−1 min^−1

SMILES: C#CCn1c(=O)c2c(nc(C=Cc3cccc(OC)c3)n2C)n(CCCO)c1=O [MSX-2, 3-(3-Hydroxypropyl)-7-methyl-1-propargyl-8-(m-methoxystryryl)xanthine]
Ki (hA2AAR [5]): 9 ± 0.3 nM | Ki (hA2AAR [6]): 5.7 ± 0.1 nM | k off ± SEM, Radioligand binding (hA2AAR [7]): 0.000433 ± 6.7e-05 s⁻¹ | k on ± SEM, Radioligand binding (hA2AAR [7]): 2.4 ± 0.2 × 10^6 M^−1 min^-1 | shape of competition association curve (hA2AAR [8]; 3 nM ZM-241,385, 90 nM MSX-2 or 15 nM LUF6632): typical for fast-dissociating ligands | k off ± SEM, MS binding (M/IS) (hA2AAR [8]; [12]): 0.00045 ± 8.3e-05 s⁻¹ | k on ± SEM, MS binding (M/IS) (hA2AAR [8]; [12]): 5.4 ± 0.6 × 10^6 M^−1 min^-1 | k off ± SEM, MS binding (marker) (hA2AAR [8]; [13]): 0.00105 ± 0.000367 s⁻¹ | k on ± SEM, MS binding (marker) (hA2AAR [8]; [13]): 9.3 ± 1.3 × 10^6 M^−1 min^-1

koff (hA1AR [9]; read-out: k off ± SEM, Radioligand binding (converted)): 0.0183 s⁻¹ | kon (hA1AR [9]; read-out: k on ± SEM, Radioligand binding (converted)): 1e+06 M⁻¹ s⁻¹ | shape of competition association curve (hA1AR [3]; hA1AR): typical for fast-dissociating ligands | koff (hA1AR [3]; read-out: k off ± SEM, MS binding (M/IS) (converted)): 0.0233 s⁻¹ | koff (hA1AR [3]; read-out: k off ± SEM, MS binding (marker) (converted)): 0.02 s⁻¹ | kon (hA1AR [3]; read-out: k on ± SEM, MS binding (M/IS) (converted)): 833000 M⁻¹ s⁻¹ | kon (hA1AR [3]; read-out: k on ± SEM, MS binding (marker) (converted)): 500000 M⁻¹ s⁻¹ | Ki (hA1AR [10]): 43 ± 11 nM | Ki (hA1AR [11]): 31 ± 1 nM
SMILES: Cn1c(=O)c2[nH]c(C3CCCC3)nc2n(C)c1=O [8-CPT, 8-Cyclopentyltheophylline]
